Laboratory results as given in the NIST ThermoML archive (doi:10.1016/j.jct.2006.01.015).

Assay: xn = mol fraction of the nth substance listed
Details: 101 kPa, Liquid

CC(=O)N(C)C [N,N-dimethylethanamide] + CC#N
mass density [kg/m3]
Details	293.15 K	298.15 K	303.15 K	308.15 K	313.15 K	318.15 K
x2 = 0	941	936.5	932	927.6	923.1	918.6
x2 = 0.0815	934.2	929.7	925.2	920.7	916.2	911.7
x2 = 0.1674	926.3	921.8	917.3	912.8	908.3	903.9
x2 = 0.2386	919.2	914.7	910.2	905.7	901.2	896.8
x2 = 0.3133	911.2	906.7	902.2	897.7	893.2	888.8
x2 = 0.3689	904.8	900.3	895.8	891.3	886.8	882.4
x2 = 0.4223	898.3	893.8	889.3	884.8	880.3	875.8
x2 = 0.4722	891.8	887.3	882.7	878.2	873.7	869.2
x2 = 0.5387	882.5	877.9	873.3	868.8	864.2	859.7
x2 = 0.581	876.1	871.5	866.9	862.3	857.7	853.1
x2 = 0.6379	866.9	862.2	857.6	852.9	848.3	843.6
x2 = 0.6794	859.7	855	850.2	845.5	840.8	836.1
x2 = 0.7236	851.5	846.7	841.9	837.1	832.3	827.5
x2 = 0.8071	833.9	829	824.1	819.2	814.3	809.4
x2 = 0.8776	817	812	807	802	797	792
x2 = 0.9424	799.4	794.3	789.2	784.1	779	773.9

CNC(C)=O [N-methylacetamide] + CC#N
mass density [kg/m3]
Details	293.15 K	298.15 K	303.15 K	308.15 K	313.15 K	318.15 K
x2 = 0	958.4	954.2	950.1	945.9	941.7	937.6
x2 = 0.0637	951.5	947.2	942.9	938.6	934.3	930
x2 = 0.1232	944.8	940.3	935.9	931.4	927	922.6
x2 = 0.1926	936.5	931.9	927.3	922.8	918.2	913.7
x2 = 0.2665	927.2	922.5	917.8	913.1	908.4	903.7
x2 = 0.3244	919.5	914.7	909.9	905.1	900.3	895.5
x2 = 0.3702	913.2	908.3	903.4	898.5	893.6	888.7
x2 = 0.4365	903.5	898.5	893.5	888.5	883.5	878.5
x2 = 0.4925	894.7	889.6	884.5	879.4	874.3	869.3
x2 = 0.5412	886.6	881.4	876.2	871.1	865.9	860.8
x2 = 0.58	879.8	874.6	869.4	864.2	859	853.8
x2 = 0.6301	870.6	865.3	860.1	854.9	849.6	844.4
x2 = 0.6766	861.6	856.3	851	845.7	840.4	835.1
x2 = 0.7613	843.8	838.4	833	827.7	822.3	816.9
x2 = 0.8305	827.8	822.4	817	811.6	806.2	800.8
x2 = 0.9203	804.8	799.5	794.2	788.8	783.4	778

CC#N [acetonitrile] + CN(C)C=O
mass density [kg/m3]
Details	293.15 K	298.15 K	303.15 K	308.15 K	313.15 K	318.15 K
x1 = 0.0654	942	937.5	933	928.6	924.1	919.6
x1 = 0.1303	934.6	930.1	925.6	921.2	916.7	912.2
x1 = 0.1912	927.4	922.9	918.4	914	909.4	904.9
x1 = 0.2586	919	914.5	909.9	905.5	900.9	896.4
x1 = 0.3204	910.9	906.3	901.7	897.2	892.6	888.1
x1 = 0.3851	902	897.4	892.7	888.2	883.6	879
x1 = 0.4596	891.2	886.5	881.8	877.2	872.5	867.9
x1 = 0.5125	883.1	878.4	873.6	869	864.2	859.5
x1 = 0.5925	870	865.2	860.4	855.7	850.9	846.1
x1 = 0.6402	861.7	856.9	852	847.3	842.5	837.6
x1 = 0.6899	852.6	847.8	842.9	838.1	833.2	828.3
x1 = 0.731	844.7	839.8	834.9	830	825.1	820.2
x1 = 0.7736	836.1	831.1	826.1	821.2	816.3	811.4
x1 = 0.8522	818.9	813.9	808.9	803.9	798.9	793.9
x1 = 0.9359	798.9	793.8	788.7	783.6	778.5	773.4
x1 = 1	782.1	776.8	771.5	766.3	761	755.7

NC=O [formamide] + CC#N
mass density [kg/m3]
Details	293.15 K	298.15 K	303.15 K	308.15 K	313.15 K	318.15 K
x2 = 0	1133	1129	1125	1121	1117	1113
x2 = 0.0764	1104.3	1099.7	1095.1	1090.5	1085.9	1081.3
x2 = 0.161	1073.2	1068.1	1063	1057.9	1052.8	1047.7
x2 = 0.2485	1041.1	1035.7	1030.3	1024.7	1019.3	1013.9
x2 = 0.2976	1022.9	1017.3	1011.7	1006.1	1000.5	994.9
x2 = 0.3444	1005.4	999.7	994	988.3	982.6	976.9
x2 = 0.412	980.1	974.3	968.5	962.7	956.9	951.1
x2 = 0.4728	957.8	951.9	946	940.2	934.3	928.3
x2 = 0.5336	935.9	930	924.1	918.2	912.3	906.4
x2 = 0.5862	917.2	911.3	905.4	899.6	893.7	887.8
x2 = 0.6388	898.9	893	887.1	881.3	875.4	869.5
x2 = 0.6994	878	872.2	866.4	860.6	854.8	849
x2 = 0.7554	859.1	853.4	847.7	842	836.3	830.4
x2 = 0.8143	839.6	834	828.1	822.6	817	811.4
x2 = 0.8754	820	814.5	809	803.5	798	792.5
x2 = 0.9398	800.1	794.7	789.2	783.8	778.4	773
